Data as given in patent publication US20070190070A1, “Methods of using and compositions comprising selective cytokine inhibitory drugs for the treatment and management of disorders of the central nervous system” (priority 2004, published 2007).

Columns and labels:
[1] = Cardiovascular and respiratory function in anesthetized dogs; type: in vivo; conditions: anesthetized Beagle dogs; 400, 800 and 1,200 mg/kg/day via jugular vein infusion; compared to the vehicle control group
Protocol: The effects of 3-(3,4-dimethoxy-phenyl)-3-(1-oxo-1,3-dihydro-isoindol-2-yl)-propionamide on cardiovascular and respiratory function are investigated in anesthetized dogs. Two groups of Beagle dogs (2/sex/group) are used. One group receives three doses of vehicle only and the other receives three ascending doses of 3-(3,4-dimethoxy-phenyl)-3-(1-oxo-1,3-dihydro-isoindol-2-yl)-propionamide (400, 800, and 1,200 mg/kg/day). In all cases, doses of 3-(3,4-dimethoxy-phenyl)-3-(1-oxo-1,3-dihydro-isoindol-2-yl)-propionamide or vehicle are successively administered via infusion through the jugular vein separated by intervals of at least 30 minutes.

[2] = tested on: C57BL/6 mice injected with MPTP; conditions: cited from earlier work
[3] = tested on: rat mesencephalonic neurons; conditions: in the presence of the adenylate cyclase activator forskolin; cited from earlier work
CBP^+/− mutant mice = conditions: cited from earlier work
patients with PD = conditions: cited from earlier work

| SMILES | dopamine depletion in the striatum [2] | loss of tyrosine hydroxylase-immunopositive neurons in the substantia nigra [2] | uptake of dopamine [3] | long-term memory defects (CBP^+/− mutant mice) | further results |
| --- | --- | --- | --- | --- | --- |
| COc1ccc(C(CC(N)=O)N2Cc3ccccc3C2=O)cc1OC (centres unmarked) [3-(3,4-Dimethoxy-phenyl)-3-(1-oxo-1,3-dihydro-isoindol-2-yl)-propionamide] |  |  |  |  | cardiovascular and respiratory changes [1]: minimal at all doses |
| CCCCOc1cc(CC2CNC(=O)N2)ccc1OC (centres unmarked) [Ro-20 1724] | reduce dopamine depletion in the striatum | reduce loss of tyrosine hydroxylase-immunopositive neurons | stimulate uptake of dopamine |  |  |
| COCCOc1cc(OCCOC)cc(-c2nc(C)cc3cc(OC)c(OC)cc23)c1 [SDZ-MNS 949] | reduce dopamine depletion in the striatum | reduce loss of tyrosine hydroxylase-immunopositive neurons | stimulate uptake of dopamine |  |  |
| COc1ccc([C@H]2CNC(=O)[C@H](Cc3cccc(C)c3)C2)cc1OC1CCCC1 [HT0712] |  |  |  | abolished the long-term memory defects |  |
| COc1ccc(C2CNC(=O)C2)cc1OC1CCCC1 (centres unmarked) [Rolipram] |  |  |  | abolished the long-term memory defects | deterioration of the therapeutic action of dopamine against Lisuride (patients with PD; 3 mg per day, patients with PD already under treatment): no significant deterioration; dose-limiting side effect (patients with PD; Phase II trials of PD): nausea |
